# Entries after “also recorded” stand apart in the source; their conditions may differ. Like-named read-outs stand apart in the source and are kept apart here.
# Legend:
# in vitro = in vitro ADME; settings: plasma
# Protocol: Plasma stability assay. The plasma stability assay was performed in duplicate by incubating each selected compound (1 µmol/L final concentration) in normal mouse (CD-1) or human plasma (Innovative Research, Novi, MI, USA) at 37 °C.
# [1] = system: T. gondii intracellular stages; test: T. gondii immunofluorescence assay; assay type: cell-based, Toxoplasma gondii; settings: 7.5 µM, 24 h
# Protocol: For T. gondii IFAs, confluent HFF cells in 4-well chamber cell culture glass slides were infected with either 5 × 10^4 or 1 × 10^5 parasites/mL. At 6 hpi, 7.5 µM oidiolactone A or DMSO control was diluted in culture medium and added to the slides for 24 h. The slides were then fixed with 4% paraformaldehyde and permeabilized with 0.25% Triton-X. The slides were blocked with 3% goat serum in 0.25% Triton-X. The parasites were visualized with anti-T. gondii SAG1 and Alexa Fluor 594 goat anti-rabbit antibody. The slides were mounted, and images were acquired as described above and processed with NIS Elements GA3 (general analysis 3).
# C. parvum oocysts = test: C. parvum oocyst excystation assay; assay type: cell-based, Cryptosporidium parvum; settings: 7.5 µM, 1-hour incubation
# Protocol: (§1) C. parvum excystation and invasion assays: Oocyst excystation rates in the presence of compounds were determined as previously described. The C. parvum invasion inhibition assays were conducted in two formats. In the first format, described previously, HCT-8 cells were seeded on glass slides (CELLTREAT Scientific Product, Pepperell, MA, USA) and allowed to grow to confluence. Oidiolactone A was added to the cells for one hour. TrtE and DMSO were run in parallel as positive and negative controls, respectively. The cell monolayers were then infected with 1.2 × 10^6 wild-type C. parvum oocysts. After 3 h of incubation at 37 °C, the slides were washed five times with 111 mM D-galactose, fixed with 4% paraformaldehyde, and permeabilized with 0.25% Triton-X. C. parvum sporozoites were detected with rabbit anti-gp40 [39] and Alexa Fluor 594 goat anti-rabbit antibodies. The HCT-8 cell nuclei were stained with 0.09 mM Hoechst. Slides were coded to enable unbiased counting, and sporozoites from at least 10 randomly selected fields were counted in each sample at 100× magnification (Zeiss® Axioscope 5). The percentage of invaded parasites was determined using the following equation: % Invaded parasites = [parasitescompound/parasitesDMSO] × 100. This experiment was run in duplicate with two biological replicates.
# HCT-8 cytotoxicity assay = assay type: cell-based; settings: human; sub-confluent (~40% confluency); read-out: EC50 cytotoxicity against sub-confluent HCT-8 cells
# Protocol: (§2) HCT-8 and HFF cytotoxicity assays: Cytotoxicity of the compounds was determined against both confluent (the conditions of the infection assays) and growing HCT-8 and HFF host cells, as previously described. Cells were seeded into white-sided, clear-bottom 96-well plates and grown to either 40% or 100% confluency. Compounds were added to cells at various concentrations up to 100 µM in a final DMSO concentration of 0.5%. DMSO was run in parallel as a vehicle control. After 48 h, the viability of the cells was determined by either quantification of cellular ATP (Cell-Titer Glo cell viability assay; Promega, Madison WI, USA) or by MTT assay. Viability was determined 24 h after compound addition to HFF cells or 48 h after compound addition to HCT-8 cells or HepG2 cells. The percent cell growth was then calculated with the following formula: % Cell Growth = [RLUcompound/RLUDMSO] × 100. Samples were run in triplicate with two to three biological replicates.
# HCT-8 cells = test: HCT-8 cytotoxicity assay; assay type: cell-based
# Protocol: as §2
# [2] = Microsomal stability assay, mouse; settings: microsomes, pH 7.4
# Protocol: Microsomal stability assay. The in vitro microsomal stability assay was conducted in duplicate in commercially available mouse or human liver microsomes (Sekisui XenoTech, Kansas City, KS, USA), which were supplemented with nicotinamide adenine dinucleotide phosphate (NADPH) as a cofactor. […] The reaction was initiated by the addition of 1 mmol/L NADPH, followed by incubation at 37 °C. A negative control was performed in parallel without NADPH to reveal any chemical instability or non-NADPH dependent enzymatic degradation for each compound. […] At various time points (0, 5, 15, 30, and 60 min), a 40 µL of reaction aliquot was taken and quenched with 120 µL of acetonitrile containing 0.1% formic acid. The samples were then vortexed and centrifuged at 15,000 rpm for 5 min at 4 °C. The supernatants were collected and analyzed by LC-MS/MS to determine the in vitro metabolic half-life (t1/2).
# C. parvum = C. parvum growth inhibition assay (Cp-NLuc-infected HCT-8 cells); assay type: cell-based, Cryptosporidium parvum; settings: Cryptosporidium parvum
# Protocol: C. parvum growth inhibition assays: The in vitro growth inhibition assay of C. parvum has been previously described. Briefly, clear-bottom, white-sided 96 well plates were seeded with HCT-8 cells. Once the cells reached between 50% and 75% confluency, they were infected with Cp-NLuc oocysts (10,000/well) in complete media containing 0.6% taurocholate. At 24 h post-infection (hpi), the infected cells were treated with compounds at various concentrations. DMSO was used as a vehicle control in parallel. Parasite growth was determined at 72 hpi by measuring relative luminescence units (RLUs) using Promega Nano-Glo substrate (Promega, Madison, WI, USA) and a SpectraMax® L Microplate Reader (Molecular Devices, San Jose, CA, USA). The percent inhibition of parasite growth was calculated as [(RLUDMSO − RLUcompound)/RLUDMSO] × 100.
# C. parvum sporozoites = test: C. parvum invasion inhibition assay; assay type: cell-based, Cryptosporidium parvum; settings: 7.5 µM, 3 h infection, luciferase and IFA formats
# Protocol: as §1, with “replicates. […]” for “replicates.”
smiles,measurement,setting,value
"CO[C@H]1OC(=O)C=C2[C@@]13O[C@@H]3[C@H]1OC(=O)[C@@]3(C)CCC[C@@]2(C)[C@@H]13 [compound 1, oidiolactone A]",half-life at 1 µmol/L,"in vitro; CD-1, mouse, 1 µmol/L, 37 °C, mean ± SD, read-out: Mouse Plasma Stability t½",1.76 ± 0.0283 h
same,half-life at 1 µmol/L,"in vitro; CD-1, mouse, discussion, read-out: half-life in mouse blood plasma",< 2 h
same,half-life at 1 µmol/L,"in vitro; human, 37 °C, mean ± SD, read-out: Human Plasma Stability t½",0.2917 ± 0.00167 h
same,abundance of treated T. gondii parasites by IFA,[1],much lower abundances
same,effect on oocyst excystation,C. parvum oocysts,no effect
same,EC50 at 48 h,HCT-8 cytotoxicity assay,29.7 µM
same,TC50 HCT-8 (confluent),HCT-8 cells; confluent,> 30 µM
same,toxicity to host cells (no toxicity up to),"HCT-8 cells; confluent HCT-8, conditions of the infection assay, 48 h, cellular ATP",> 100 µM
same,TC50 HCT-8 (sub-confluent),HCT-8 cells; sub-confluent,29.7 ± 1.8 µM
same,half-life at 1 µmol/L,[2],1.84 ± 0.0717 h
same,EC50,"C. parvum; HCT-8, read-out: EC50 against C. parvum",0.53 µM
same,EC50,"C. parvum; Cp-NLuc-infected HCT-8 cells, 7.5 µM to 117 nM, Figure 2E, read-out: C. parvum EC50",0.529 µM
same,effect on parasite invasion,C. parvum sporozoites,no effect; also recorded: did not exhibit any effect

# Source: paper PMC12654037, “Norditerpene Natural Products from Subterranean Fungi with Anti-Parasitic Activity” (Microorganisms, 2025)
